From patent US7968556B2, “Heteroaryl compounds, compositions thereof, and methods of treatment therewith” (Signal Pharmaceuticals, LLC, priority 2006, dated 2011) come the findings set out here.

A word on the melting point: it is the temperature, or range, at which the solid turns liquid.

`NC(=O)c1nc(-c2cccc(O)c2)nc2c1[nH]c(=O)n2-c1ccccc1Oc1ccccc1` [Compound 126, 2-(3-Hydroxyphenyl)-8-oxo-9-(2-phenoxyphenyl)-8,9-dihydro-7H-purine-6-carboxamide] came in with a melting point of 329 to 331 °C. In the case of `CC(C)c1ccccc1-n1c(=O)[nH]c2c(C(N)=O)nc(-c3ccc4nc[nH]c4c3)nc21` [Compound 127, 2-(1H-Benzo[d]imidazol-6-yl)-9-(2-isopropylphenyl)-8-oxo-8,9-dihydro-7H-purine-6-carboxamide], the melting point was 275 °C (dec.). With `COc1ccccc1-n1c(=O)[nH]c2c(C(N)=O)nc(-c3cccc4[nH]ncc34)nc21` [Compound 128, 2-(1H-Indazol-4-yl)-9-(2-methoxyphenyl)-8-oxo-8,9-dihydro-7H-purine-6-carboxamide] the figure was 280 °C. The compound `NC(=O)c1nc(-c2cccnc2O)nc2c1[nH]c(=O)n2-c1ccccc1C(F)(F)F` [Compound 129, 2-(2-Hydroxypyridin-3-yl)-8-oxo-9-(2-(trifluoromethyl)phenyl)-8,9-dihydro-7H-purine-6-carboxamide] returned a melting point of 331 to 335 °C.

With `COc1ccccc1-n1c(=O)[nH]c2c(C(N)=O)nc(-c3cnc4nc[nH]c4c3)nc21` [Compound 130, 2-(1H-Imidazo[4,5-b]pyridin-6-yl)-9-(2-methoxyphenyl)-8-oxo-8,9-dihydro-7H-purine-6-carboxamide], the melting point was 358 °C (dec.). With `CC(C)c1ccccc1-n1c(=O)[nH]c2c(C(N)=O)nc(-c3ccc(-n4ccnc4)cc3)nc21` [Compound 131, 2-(4-(1H-Imidazol-1-yl)phenyl)-9-(2-isopropylphenyl)-8-oxo-8,9-dihydro-7H-purine-6-carboxamide] the figure was 232 °C; with `NC(=O)c1nc(-c2cccc(O)c2)nc2c1[nH]c(=O)n2-c1ccccc1C1CCCCC1` [Compound 132, 9-(2-Cyclohexylphenyl)-2-(3-hydroxyphenyl)-8-oxo-8,9-dihydro-7H-purine-6-carboxamide], > 270 °C.

Consider `CC(C)c1ccccc1-n1c(=O)[nH]c2c(C(N)=O)nc(-c3ccc(-c4ncc[nH]4)cc3)nc21` [Compound 133, 2-(4-(1H-Imidazol-2-yl)phenyl)-9-(2-isopropylphenyl)-8-oxo-8,9-dihydro-7H-purine-6-carboxamide], for which the melting point is 340 °C (dec.). Take `COc1ccccc1-n1c(=O)[nH]c2c(C(N)=O)nc(-n3cnc4ccccc43)nc21` [Compound 134, 2-(1H-Benzo[d]imidazol-1-yl)-9-(2-methoxyphenyl)-8-oxo-8,9-dihydro-7H-purine-6-carboxamide]: the melting point was in the range of 318 to 319 °C.

On to `CC(C)c1ccccc1-n1c(=O)[nH]c2c(C(N)=O)nc(-c3cnc4nc[nH]c4c3)nc21` [Compound 135, 2-(1H-Imidazo[4,5-b]pyridin-6-yl)-9-(2-isopropylphenyl)-8-oxo-8,9-dihydro-7H-purine-6-carboxamide], for which the melting point is 320 °C (dec.).

On to `CC(C)c1ccccc1-n1c(=O)[nH]c2c(C(N)=O)nc(-c3cnc4[nH]ccc4c3)nc21` [Compound 136, 9-(2-Isopropylphenyl)-8-oxo-2-(1H-pyrrolo[2,3-b]pyridin-5-yl)-8,9-dihydro-7H-purine-6-carboxamide], for which the melting point is 380 °C (dec.). The value for `NC(=O)c1nc(-c2cnc3nc[nH]c3c2)nc2c1[nH]c(=O)n2-c1ccccc1C(F)(F)F` [Compound 137, 2-(1H-Imidazo[4,5-b]pyridin-6-yl)-8-oxo-9-(2-(trifluoromethyl)phenyl)-8,9-dihydro-7H-purine-6-carboxamide] was 320 °C.

For the compound `COc1ccccc1-n1c(=O)[nH]c2c(C(N)=O)nc(-c3ccc4[nH]c(SC)nc4c3)nc21` [Compound 138, 9-(2-Methoxyphenyl)-2-(2-(methylthio)-1H-benzo[d]imidazol-5-yl)-8-oxo-8,9-dihydro-7H-purine-6-carboxamide], the melting point fell in the range of 244 to 245 °C. As for `CC(C)c1ccccc1-n1c(=O)[nH]c2c(C(N)=O)nc(-c3ccc4[nH]ccc4c3)nc21` [Compound 139, 2-(1H-Indol-5-yl)-9-(2-isopropylphenyl)-8-oxo-8,9-dihydro-7H-purine-6-carboxamide], the melting point was 310 °C (dec.).

Consider `NC(=O)c1nc(-c2cccc(O)c2)nc2c1[nH]c(=O)n2CC1CCCCC1` [Compound 140, 9-(Cyclohexylmethyl)-2-(3-hydroxyphenyl)-8-oxo-8,9-dihydro-7H-purine-6-carboxamide], for which the melting point is 368 to 370 °C. The compound `NC(=O)c1nc(-c2cccc(O)c2)nc2c1[nH]c(=O)n2C1CCc2ccccc21` (stereo not shown) [Compound 141, 9-(2,3-Dihydro-1H-inden-1-yl)-2-(3-hydroxyphenyl)-8-oxo-8,9-dihydro-7H-purine-6-carboxamide] displayed a melting point of 341 to 343 °C. In turn, `CC(C)Cn1c(=O)[nH]c2c(C(N)=O)nc(-c3cccc(O)c3)nc21` [Compound 142, 2-(3-Hydroxyphenyl)-9-isobutyl-8-oxo-8,9-dihydro-7H-purine-6-carboxamide] gave a melting point of 374 to 376 °C. The compound `CO[C@H]1CC[C@H](n2c(=O)[nH]c3c(C(N)=O)nc(-c4cccc(O)c4)nc32)CC1` [Compound 143, 9-(trans-4-Methoxycyclohexyl)-2-(3-hydroxyphenyl)-8-oxo-8,9-dihydro-7H-purine-6-carboxamide] had a melting point of 355 to 357 °C.

Compound `CO[C@H]1CC[C@@H](n2c(=O)[nH]c3c(C(N)=O)nc(-c4cccc(O)c4)nc32)CC1` [Compound 144, 9-(cis-4-Methoxycyclohexyl)-2-(3-hydroxyphenyl)-8-oxo-8,9-dihydro-7H-purine-6-carboxamide] displayed a melting point of 345 to 347 °C. With `NC(=O)c1nc(-c2cccc(O)c2)nc2c1[nH]c(=O)n2-c1cccc2c1CCCC2` [Compound 145, 2-(3-Hydroxyphenyl)-8-oxo-9-(5,6,7,8-tetrahydronaphthalen-1-yl)-8,9-dihydro-7H-purine-6-carboxamide], the melting point was > 250 °C. With `NC(=O)c1nc(-c2ccc(-c3nc[nH]n3)cc2)nc2c1[nH]c(=O)n2C1CCCCC1` [Compound 146, 2-(4-(1H-1,2,4-Triazol-3-yl)phenyl)-9-cyclohexyl-8-oxo-8,9-dihydro-7H-purine-6-carboxamide] the figure was 375 °C (dec.); with `NC(=O)c1nc(-c2cccc(O)c2)nc2c1[nH]c(=O)n2-c1cccc2[nH]ccc12` [Compound 147, 2-(3-Hydroxyphenyl)-9-(1H-indol-4-yl)-8-oxo-8,9-dihydro-7H-purine-6-carboxamide], > 260 °C.

Consider `COc1cccc(-n2c(=O)[nH]c3c(C(N)=O)nc(-c4cccc(O)c4)nc32)c1F` [Compound 148, 9-(2-Fluoro-3-methoxyphenyl)-2-(3-hydroxyphenyl)-8-oxo-8,9-dihydro-7H-purine-6-carboxamide], for which the melting point is > 260 °C.

As to `COc1ccc(F)c(-n2c(=O)[nH]c3c(C(N)=O)nc(-c4cccc(O)c4)nc32)c1` [Compound 149, 9-(2-Fluoro-5-methoxyphenyl)-2-(3-hydroxyphenyl)-8-oxo-8,9-dihydro-7H-purine-6-carboxamide], the melting point was > 260 °C. `NC(=O)c1nc(-c2cnc3nc[nH]c3c2)nc2c1[nH]c(=O)n2C1CCCCC1` [Compound 150, 9-Cyclohexyl-2-(1H-imidazo[4,5-b]pyridin-6-yl)-8-oxo-8,9-dihydro-7H-purine-6-carboxamide]: the melting point is 320 °C (dec.). With `NC(=O)c1nc(-c2cccc(O)c2)nc2c1[nH]c(=O)n2C1CCOCC1` [Compound 151, 2-(3-Hydroxyphenyl)-8-oxo-9-(tetrahydro-2H-pyran-4-yl)-8,9-dihydro-7H-purine-6-carboxamide] the figure was 361 to 363 °C; with `NC(=O)c1nc(-c2cccc(O)c2)nc2c1[nH]c(=O)n2-c1ccccc1C1CCCC1` [Compound 153, 9-(2-Cyclopentylphenyl)-2-(3-hydroxyphenyl)-8-oxo-8,9-dihydro-7H-purine-6-carboxamide], > 260 °C; with `COc1ccc(-n2c(=O)[nH]c3c(C(N)=O)nc(-c4cccc(O)c4)nc32)c(F)c1` [Compound 155, 9-(2-Fluoro-4-methoxyphenyl)-2-(3-hydroxyphenyl)-8-oxo-8,9-dihydro-7H-purine-6-carboxamide], > 260 °C. With `NC(=O)c1nc(-c2ccc3nc[nH]c3c2)nc2c1[nH]c(=O)n2C1CCCCC1` [Compound 156, 2-(1H-benzo[d]imidazol-6-yl)-9-cyclohexyl-8-oxo-8,9-dihydro-7H-purine-6-carboxamide], the melting point is 280 °C (dec.). The compound `COC[C@H]1CC[C@@H](n2c(=O)[nH]c3c(C(N)=O)nc(-c4cccc(O)c4)nc32)CC1` [Compound 159, 2-(3-Hydroxyphenyl)-9-(cis-4-(methoxymethyl)cyclohexyl)-8-oxo-8,9-dihydro-7H-purine-6-carboxamide] showed a melting point of 324 to 326 °C. As to `CC(C)Cc1ccccc1-n1c(=O)[nH]c2c(C(N)=O)nc(-c3cccc(O)c3)nc21` [Compound 161, 2-(3-Hydroxyphenyl)-9-(2-isobutylphenyl)-8-oxo-8,9-dihydro-7H-purine-6-carboxamide], the melting point was > 260 °C. The value for `NC(=O)c1nc(-c2cccc(O)c2)nc2c1[nH]c(=O)n2[C@@H]1CCOC1` [Compound 162, (R)-2-(3-Hydroxyphenyl)-8-oxo-9-(tetrahydrofuran-3-yl)-8,9-dihydro-7H-purine-6-carboxamide] was 353 to 355 °C. Compound `NC(=O)c1nc(-c2cccc(O)c2)nc2c1[nH]c(=O)n2[C@H]1CCOC1` [Compound 163, (S)-2-(3-Hydroxyphenyl)-8-oxo-9-(tetrahydrofuran-3-yl)-8,9-dihydro-7H-purine-6-carboxamide] yielded a melting point of 354 to 356 °C. Take `CO[C@H]1CC[C@@H](n2c(=O)[nH]c3c(C(N)=O)nc(-c4ccc5nc[nH]c5c4)nc32)CC1` [Compound 167, 2-(1H-Benzo[d]imidazol-6-yl)-9-(cis-4-methoxycyclohexyl)-8-oxo-8,9-dihydro-7H-purine-6-carboxamide]: the melting point was 345 °C (dec.).
